Values of other authors, collected in paper PMC8878452, “A Tale of Toxin Promiscuity: The Versatile Pharmacological Effects of Hcr 1b-2 Sea Anemone Peptide on Voltage-Gated Ion Channels” (Marine Drugs, 2022).
“Also recorded” adds a separate entry of the source. Where two headings read alike, the source gives them in different places. Where no end group is shown, it is not given here.

What was measured:
hERG = conditions: cited from earlier work
Source text: APETx1 are known to modulate hERG [21], Nav1.2–1.6, and Nav1.8 [20], while APETx2 modulates ASICs, Kv3.4, [22], and hERG [23], as well as Nav1.2, Nav1.6, and Nav1.8 [20]. APETx3 is known for interacting with Nav1.2–1.4, Nav1.6, DmNav1, BgNav1, and VdNav1 [20]. […] Previous studies have shown that F15, Y32, F33, and L34 seem to be key residues for the interaction between APETx1 and hERG, as they are located on the molecular surface of this peptide. Hcr 1b-2 shares the same residues in its sequence (Figure 1), which can explain the similar effect observed.

BgNav1 = conditions: cited from earlier work; for effect on insect channel BgNav: printed BgNav
Source text: (§1) APETx1 are known to modulate hERG [21], Nav1.2–1.6, and Nav1.8 [20], while APETx2 modulates ASICs, Kv3.4, [22], and hERG [23], as well as Nav1.2, Nav1.6, and Nav1.8 [20]. APETx3 is known for interacting with Nav1.2–1.4, Nav1.6, DmNav1, BgNav1, and VdNav1 [20]. […] Like Hcr 1b-2, APETx1 inhibits the mammalian Nav1.2–1.6 and Nav1.8 isoforms, while APETx2 acts on Nav1.2, Nav1.6, and Nav1.8.

Nav1.6 = conditions: cited from earlier work
Source text: as §1

Nav1.2 = conditions: cited from earlier work
Source text: as §1

Nav1.8 = conditions: cited from earlier work
Source text: as §1

Nav1.7 = conditions: cited from earlier work
Source text: (§2) APETx1 and APETx2 are well-known sea anemone peptides that are characterized as sodium channel modulators. Like Hcr 1b-2, APETx1 inhibits the mammalian Nav1.2–1.6 and Nav1.8 isoforms, while APETx2 acts on Nav1.2, Nav1.6, and Nav1.8.

Nav1.1 = conditions: cited from earlier work
Source text: as §2

Nav channels = conditions: cited from earlier work
Source text: as §2

ASIC = test system: ASIC; set-up: method as in 2 sources, one per row (each row's own in cited_ref): ref 17 = [17]; PMID 29684594; doi:10.1016/j.peptides.2018.04.013; 17. Kalina R. Gladkikh I. Dmitrenok P. Chernikov O. Koshelev S. Kvetkina A. Kozlov S. Kozlovskaya E. Monastyrnaya M. New APETx-like peptides from sea anemone Heteractis crispa modulate ASIC1a channels ||| ref 22 = [22]; PMID 15044953; doi:10.1038/sj.emboj.7600177; 22. Diochot S. Baron A. Rash L.D. Deval E. Escoubas P. Scarzello S. Salinas M. Lazdunski M. A new sea anemone peptide, APETx2, inhibits ASIC3, a major acid-sensitive channel in sensory neurons EMBO J.; conditions: cited from earlier work
Kv3.4 = test system: Kv3.4; set-up: method as in 2 sources, ref 22 = [22]; PMID 15044953; doi:10.1038/sj.emboj.7600177; 22. Diochot S. Baron A. Rash L.D. Deval E. Escoubas P. Scarzello S. Salinas M. Lazdunski M. A new sea anemone peptide, APETx2, inhibits ASIC3, a major acid-sensitive channel in sensory neurons EMBO J. ||| ref 33 = [33]; PMID 16177043; doi:10.1523/JNEUROSCI.2119-05.2005; 33. Yeung S.Y. Thompson D. Wang Z. Fedida D. Robertson B. Modulation of Kv3 subfamily potassium currents by the sea anemone toxin BDS: Significance for CNS and biophysical studies J. Neurosci. 2005 25; conditions: cited from earlier work
Nav1.4 = conditions: cited from earlier work
Source text: as §1

Nav1.3 = conditions: cited from earlier work
Source text: as §1

Nav1.5 = conditions: cited from earlier work
Source text: as §1

TTX-resistant isoforms = conditions: cited from earlier work
Source text: (§3) The only targets in which Hcr 1b-2 was not active were Kv3.1 and Kv10.1 (Figure 2 and Figure 3). Among sea anemone toxins, BDS-I, from Anemonia sulcata, is a well-characterized toxin capable of inhibiting isoforms from the Kv3 family, being active on Kv3.1, Kv3.2, and Kv3.4 [33].

Kv3.2 = conditions: cited from earlier work
Source text: as §3

TTX-sensitive channels = conditions: cited from earlier work
Source text: as §3

Kv3.1 = conditions: cited from earlier work
Source text: as §3

DmNav1 = conditions: cited from earlier work
Source text: (§4) APETx1 are known to modulate hERG [21], Nav1.2–1.6, and Nav1.8 [20], while APETx2 modulates ASICs, Kv3.4, [22], and hERG [23], as well as Nav1.2, Nav1.6, and Nav1.8 [20]. APETx3 is known for interacting with Nav1.2–1.4, Nav1.6, DmNav1, BgNav1, and VdNav1 [20].

VdNav1 = conditions: cited from earlier work
Source text: as §4

Kv1.3 = conditions: cited from earlier work
Source text: as §4

Kv1.4 = conditions: cited from earlier work
Source text: as §4

Kv1.5 = conditions: cited from earlier work
Source text: as §4

Kv2.1 = conditions: cited from earlier work
Source text: as §4

Kv10.1 = conditions: cited from earlier work

Substance	effect on hERG (hERG)	effect on insect channel BgNav (BgNav1)	effect on Nav1.6 (Nav1.6)	effect on Nav1.2 (Nav1.2)	effect on Nav1.8 (Nav1.8)	effect on Nav1.7 (Nav1.7)	effect on Nav1.1 (Nav1.1)	effect on Kv3.4 (Kv3.4)	effect on Nav1.4 (Nav1.4)	effect on Nav1.3 (Nav1.3)	effect on Nav1.5 (Nav1.5)	further results
APETx2: APETx family peptide from Anthopleura elegantissima, UniProt P61542 (GTACSCGNSKGIYWFYRPSCPTDRGYTGSCRYFLGTCCTPAD; ends and bridges not checked; cysteine pairing not given here; UniProt P61542 1-42, looked up)	modulates	unaffected	modulates; also recorded: acts on	modulates; also recorded: acts on	modulates; also recorded: acts on	unaffected	unaffected	modulates	–	–	–	modulation of voltage-dependence of Nav channels (Nav channels): did not modulate the voltage-dependence; effect on ASICs (ASIC): modulates
APETx1: APETx family peptide from Anthopleura elegantissima, UniProt P61541 (GTTCYCGKTIGIYWFGTKTCPSNRGYTGSCGYFLGICCYPVD; ends and bridges not checked; cysteine pairing not given here; UniProt P61541 1-42, looked up)	modulate	unaffected	modulate; also recorded: inhibits	modulate; also recorded: inhibits	modulate; also recorded: inhibits	unaffected	unaffected	–	modulate; also recorded: inhibits	modulate; also recorded: inhibits	modulate; also recorded: inhibits	–
BDS-I: toxin from Anemonia sulcata, UniProt P11494 (AAPCFCSGKPGRGDLWILRGTCPGGYGYTSNCYKWPNICCYPH; UniProt P11494 1-43, looked up)	–	–	–	–	–	–	–	active	–	–	–	effect on TTX-resistant isoforms (TTX-resistant isoforms): weakly affected; effect on Kv3.2 (Kv3.2): active; effect on TTX-sensitive channels (TTX-sensitive channels): strongly enhances; effect on Kv3.1 (Kv3.1): active
APETx3: APETx family peptide from Anthopleura elegantissima, UniProt B3EWF9 (GTPCYCGKTIGIYWFGTKTCPSNRGYTGSCGYFLGICCYPVD; ends and bridges not checked; cysteine pairing not given here; UniProt B3EWF9 1-42, looked up)	–	–	interacting	interacting	–	–	–	–	interacting	interacting	–	effect on hERG (hERG; Thr3Pro substitution): abolishes the activity; effect on DmNav1 (DmNav1): interacting; effect on VdNav1 (VdNav1): interacting; effect on BgNav1 (BgNav1): interacting
APETx4: APETx family peptide from Anthopleura elegantissima, UniProt C0HL40 (GTTCYCGKTIGIYWFGKYSCPTNRGYTGSCPYFLGICCYPVD; ends and bridges not checked; cysteine pairing not given here; UniProt C0HL40 1-42, looked up)	–	–	modulates	–	–	–	–	–	modulates	–	modulates	effect on Kv1.3 (Kv1.3): modulates; effect on Kv1.4 (Kv1.4): modulates; effect on Kv1.5 (Kv1.5): modulates; effect on Kv2.1 (Kv2.1): modulates; effect on Kv10.1 (Kv10.1): notorious Kv10.1 inhibitor; also recorded: non-selective Kv10.1 inhibitor
